The values that follow come from PubChem BioAssay (NCI).

Test systems include SF-295 CNS; HCT-116 colon; NCI-H23 lung; KM12 colon; PC-3 prostate; IGROV1 ovarian; OVCAR-3 ovarian; K-562 leukemia; HCC-2998 colon; RXF 393 renal.
Common to all, as to assay: growth of human tumour cells (NCI), 48 h

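Step 1: Grow cells in 96-well plates. Step 2: Expose to compound for 48 hours at 5 concentrations. Step 3: Interpolate endpoints linearly; if unreached, use highest concentration. Abbreviation: GI50, concentration required for 50% inhibition of growth. Definition used: TGI = concentration required for complete inhibition of growth.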

With `Cc1cc2c(cc1Cl)SC(=Nc1ccc(Cl)cc1)N(S(=O)(=O)c1ccc(Br)s1)S2(=O)=O`, the GI50 is 24.7 µM in the assay on SF-295 CNS; 14.7 µM with HCT-116 colon; 10.8 µM with NCI-H23 lung; 16.2 µM in the assay on KM12 colon; 12.5 µM in the assay with PC-3 prostate; 17.6 µM in the assay with IGROV1 ovarian. Further, the GI50 is 15 µM with OVCAR-3 ovarian and 16.4 µM in the assay on K-562 leukemia. In addition, the TGI in the assay on SF-295 CNS amounted to 60.5 µM; in the assay with HCT-116 colon it was 27.8 µM; in the assay on NCI-H23 lung, 25 µM; in the assay on KM12 colon, 37.7 µM; with PC-3 prostate, 27.1 µM; with IGROV1 ovarian, 55.2 µM. The results for the TGI in the assay on OVCAR-3 ovarian and with K-562 leukemia were 31.1 µM and 77.5 µM, respectively.

For `O=C1c2ccccc2C(=O)N1C/C=N/NS(=O)(=O)c1cccc([N+](=O)[O-])c1`, the TGI with SF-295 CNS, with HCT-116 colon, in the assay on NCI-H23 lung, in the assay with HCC-2998 colon, in the assay with RXF 393 renal and in the assay with KM12 colon was more than 100 µM in each case. In addition, the TGI in the assay on IGROV1 ovarian and in the assay with K-562 leukemia was more than 100 µM in each case.

Take `CN(c1ccccc1)c1nc(=[N+](C)C)ss1`: the TGI in the assay on SF-295 CNS, in the assay with HCT-116 colon, with NCI-H23 lung, with HCC-2998 colon, in the assay on RXF 393 renal and in the assay on KM12 colon was more than 100 µM throughout. Further, the TGI in the assay with IGROV1 ovarian and with K-562 leukemia was more than 100 µM each time.

Turning to `O=c1c2ccccc2c(=O)n2n1-c1cccc(c1)CSSCc1cccc-2c1`, the TGI with SF-295 CNS, in the assay with HCT-116 colon, in the assay on NCI-H23 lung, in the assay with HCC-2998 colon, in the assay on RXF 393 renal and with KM12 colon was more than 100 µM each time. Further, the TGI with IGROV1 ovarian, in the assay with OVCAR-3 ovarian and in the assay on K-562 leukemia was more than 100 µM each time. Besides, the GI50 in the assay with HCT-116 colon, in the assay with NCI-H23 lung, with HCC-2998 colon, in the assay with KM12 colon, in the assay with IGROV1 ovarian and in the assay with OVCAR-3 ovarian was more than 100 µM each time. In addition, the GI50 in the assay with K-562 leukemia is more than 100 µM.

With `N#Cc1cnc2ccc(NCc3cnc[nH]3)cc2c1Nc1ccc(F)c(Cl)c1`, the GI50 in the assay with SF-295 CNS is 20.1 µM; with HCT-116 colon, 6.85 µM; in the assay on NCI-H23 lung, more than 100 µM; with HCC-2998 colon, more than 100 µM; in the assay with RXF 393 renal, 7.03 µM; in the assay with KM12 colon it was more than 100 µM. The GI50 with IGROV1 ovarian was 2.6 µM; with OVCAR-3 ovarian, 3.38 µM; in the assay on K-562 leukemia it was 9.3 µM. The TGI with SF-295 CNS, in the assay on HCT-116 colon, in the assay on NCI-H23 lung, with HCC-2998 colon, with RXF 393 renal and in the assay with KM12 colon was more than 100 µM in each case. Also, the TGI in the assay on IGROV1 ovarian, in the assay on OVCAR-3 ovarian and in the assay on K-562 leukemia was more than 100 µM in each case.

For the molecule `CCC(=O)N1C(=S)SC[C@H]1C(=O)OC`, the TGI in the assay on SF-295 CNS, in the assay on HCT-116 colon, in the assay on NCI-H23 lung, with HCC-2998 colon, with RXF 393 renal and in the assay on KM12 colon was more than 100 µM each time. Further, the TGI in the assay with IGROV1 ovarian, with OVCAR-3 ovarian and in the assay with K-562 leukemia was more than 100 µM each time.

With `O=[N+]([O-])c1ccc(Cl)c(C2CC(c3cccc4ccccc34)=Nc3ccccc3S2=O)c1` (stereo not drawn), the TGI was 61 µM in the assay on SF-295 CNS; 35.1 µM in the assay on HCT-116 colon; 17.4 µM with NCI-H23 lung; more than 50.3 µM in the assay with HCC-2998 colon; 21.1 µM in the assay with RXF 393 renal; more than 100 µM with KM12 colon. The values for the TGI in the assay on IGROV1 ovarian, with OVCAR-3 ovarian and in the assay with K-562 leukemia were more than 85.1 µM, 83.4 µM and 37 µM, respectively.

In the case of `CC[O-].CC[O-].[O-]c1ccccc1C=NC12CC3CC(CC(C3)C1)C2.[O-]c1ccccc1C=NC12CC3CC(CC(C3)C1)C2.[Ti+4]`, the GI50 in the assay on SF-295 CNS is more than 100 µM; in the assay on HCT-116 colon, 39.6 µM; in the assay with NCI-H23 lung, 50 µM; in the assay with HCC-2998 colon, more than 100 µM; with RXF 393 renal, 53.9 µM; with KM12 colon it was more than 100 µM. For the same molecule, the GI50 was more than 100 µM in the assay with IGROV1 ovarian, more than 100 µM with OVCAR-3 ovarian and 31.4 µM in the assay on K-562 leukemia. For the same molecule, the TGI in the assay with SF-295 CNS, in the assay with HCT-116 colon, in the assay on NCI-H23 lung, in the assay with HCC-2998 colon, in the assay with RXF 393 renal and in the assay with KM12 colon was more than 100 µM throughout. Further, the TGI in the assay with IGROV1 ovarian, in the assay on OVCAR-3 ovarian and in the assay on K-562 leukemia was more than 100 µM in each case.

With `CN(N=O)C(=O)NC(CCCCNC(=O)OCc1ccccc1)C(=O)OCc1ccccc1` (stereo not drawn), the TGI with SF-295 CNS was more than 100 µM; in the assay on HCT-116 colon it was more than 100 µM; in the assay on NCI-H23 lung it was 51.3 µM; in the assay with HCC-2998 colon, more than 100 µM; with RXF 393 renal, 61.8 µM; with KM12 colon it was more than 100 µM. The TGI with IGROV1 ovarian was more than 100 µM; in the assay on OVCAR-3 ovarian, 98.1 µM; with K-562 leukemia it was more than 100 µM.

Consider `CC(C)(Sc1cc(C(C)(C)C)c(O)c(C(C)(C)C)c1)Sc1cc(C(C)(C)C)c(O)c(C(C)(C)C)c1`, for which the TGI with SF-295 CNS, in the assay on HCT-116 colon, in the assay on NCI-H23 lung, in the assay with RXF 393 renal, with KM12 colon and in the assay on PC-3 prostate was more than 100 µM in each case. Further, the TGI was more than 100 µM in the assay on IGROV1 ovarian and 3.35 µM with K-562 leukemia.

For the molecule `CCN(CC)CC(C(=O)Nc1c(C)cccc1C)/C(C)=N\NC(=S)NN` (stereo not drawn), the TGI with SF-295 CNS, in the assay with HCT-116 colon, in the assay on NCI-H23 lung, in the assay with HCC-2998 colon, in the assay with RXF 393 renal and in the assay with KM12 colon was more than 100 µM throughout. For the same molecule, the TGI in the assay on IGROV1 ovarian, in the assay with OVCAR-3 ovarian and in the assay with K-562 leukemia was more than 100 µM in each case.
